Laboratory results from US20160279142A1, “COMBINATIONS OF A PHOSPHOINOSITIDE 3-KINASE INHIBITOR COMPOUND AND A CDK4/6 INHIBITOR COMPOUND FOR THE TREATMENT OF CANCER” (Genentech, Inc., priority 2015, published 2016).
Entries after “also recorded” stand apart in the source; their conditions may differ.

What was measured:
[1] = test system: MCF7×2.3.CMV.ARO.LetR letrozole-resistant breast cancer cells; test: CellTiter-Glo cell viability, MCF7x2.3.CMV.ARO.LetR; assay type: cell-based; conditions: dose titrations (FIG. 6)
Description: (§1) Cell culture. MCF7 cell line was obtained from the American Type Culture Collection (ATCC, VA). The cells were tested and authenticated using gene expression and single nucleotide polymorphism genotyping arrays (Hoeflich K P, et al (2009) Clin Cancer Res, 15(14):4649-4664; Hu X, et al (2009) Mol Cancer Res, 7(4):511-522) and cultured in RPMI supplemented with 10% fetal bovine serum, 100 units/ml penicillin, 100 µg/ml streptomycin, 2 mM L-glutamine and NEAA at 37° C. under 5% CO2. Stable aromatase-expressing MCF7 cells (MCF7-ARO) were generated by transfection of a plasmid vector containing the full aromatase gene and a neomycin selection gene. The cells were maintained in androstenedione and all experiments were performed in the presence of androstenedione except where indicated
(§2) The CellTiter-Glo® Luminescent Cell Viability Assay is a homogeneous method to determine the number of viable cells in culture based on quantitation of the ATP present, which signals the presence of metabolically active cells. […]
(§3) The assay assesses the ability of compounds to enter cells and inhibit cell proliferation. The assay principle is based on the determination of the number of viable cells present by quantitating the ATP present in a homogenous assay where addition of the Cell Titer-Glo® reagent results in cell lysis and generation of a luminescent signal through the luciferase reaction. […]

[2] = test system: MCF7×2.3.ARO.LetR letrozole-resistant breast cancer cells (Letrozole-R1); test: CellTiter-Glo cell viability, letrozole-resistant MCF7x2.3.ARO.LetR; assay type: cell-based; conditions: letrozole-resistant MCF7 LetR (FIG. 1b, FIG. 4)
Description: as §1, §2, §3
Cell viability assays. […] After 4 days incubation, relative numbers of viable cells were estimated using CellTiter-Glo (Promega, Madison, Wis.) and total luminescence was measured on an Envision plate Reader (PerkinElmer, Foster City, Calif.). […]
Cell viability assays and combination assays: Cells were seeded at 1000-2000 cells/well in 384-well plates for 16 h. […] After 4 days, relative numbers of viable cells were measured by luminescence using Cell Titer-Glo® (Promega) according to the manufacturer's instructions and read on a Wallac Multilabel Reader® (PerkinElmer, Foster City). EC50 values were calculated using Prism® 4.0 software (GraphPad, San Diego). […]

[3] = test system: MCF-7 breast cancer xenografts; test: In vivo tumor efficacy study, MCF-7 breast cancer xenografts; conditions: MCF-7 xenograft mice; for CR: complete responses (100% tumor regression); for PR: partial responses (tumor regression >50% but <100%); for TTP 2X: time to progression 2X; for TTP 2X / AUC/Day % TGI (lower, upper): po qdx21; for AUC/Day % TGI (lower, upper): tumor growth inhibition vs vehicle; for Vol Day 21: tumor volume at day 21, po qdx21 (method b194 gives mm^3)
Description: The animals were fed ad libitum water (reverse osmosis, 1 ppm Cl) and NIH 31 Modified and Irradiated Lab Diet® consisting of 18.0% crude protein, 5.0% crude fat, and 5.0% crude fiber. The mice were housed on irradiated ALPHA-Dri® Bed-o'Cobs® Laboratory Animal Bedding in static microisolators on a 12-hour light cycle at 21-22° C. (70-72° F.) and 40-60% humidity. PRC specifically complies with the recommendations of the Guide for Care and Use of Laboratory Animals with respect to restraint, husbandry, surgical procedures, feed and fluid regulation, and veterinary care. The animal care and use program at PRC is accredited by the Association for Assessment and Accreditation of Laboratory Animal Care International (AAALAC), which assures compliance with accepted standards for the care and use of laboratory animals.
Xenografts were initiated with cancer cells, including breast cancer cell lines MCF-7 (Soule H. D. et al (1973) Jour. Nat. Cancer Inst. 51 (5): 1409-1416; Levenson A. S. et al (1997) Cancer Res. 57 (15): 3071-3078; LaCroix M. et al (2004) Breast Res. and Treatment 83 (3): 249-289) and MDA-MB-453 (Vranic S. et al (2011) Onc. Letters 2: 1131-1137; Hall R. E. et al (1994) Euro. Jour. Cancer 30(4):484-490). Cells were cultured in RPMI 1640 medium supplemented with 10% fetal bovine serum, 2 mM glutamine, 100 units/mL penicillin, […] streptomycin sulfate and 25 μg/mL gentamicin. The cells were harvested during exponential growth and resuspended in phosphate buffered saline (PBS) at a concentration of 5×10^6 or 10×10^6 cells/mL depending on the doubling time of the cell line. Tumor cells were implanted subcutaneously in the right flank, and tumor growth was monitored as the average size approached the target range of 100 to 150 mm3. Twenty-one days after tumor implantation, designated as Day 0 of the study, the mice were placed into four groups each consisting of ten mice with individual tumor volumes ranging from 75-172 mm3 and group mean tumor volumes from 120-121 mm3 (see Appendix A). Volume was calculated using the formula: […]
GDC-0032 was supplied as a dry powder in salt form, which contained 73% active agent, and was stored at room temperature protected from light. Drug doses were prepared weekly in 0.5% methylcellulose: 0.2% Tween 80 in deionized water (“Vehicle”) and stored at 4° C. The salt form containing 73% active agent was accounted for in the formulation of GDC-0032 doses. Doses of GDC-0032 were prepared on each day of dosing by diluting an aliquot of the stock with sterile saline (0.9% NaCl). All doses were formulated to deliver the stated mg/kg dosage in a volume of 0.2 mL per 20 grams of body weight (10 mL/kg).
All doses were scaled to the body weights of the individual animals and were provided by the route indicated in each of the figures.
Tumor volume was measured in 2 dimensions (length and width), using Ultra Cal IV calipers (Model 54 10 111; Fred V. Fowler Company), as follows: tumor volume (mm^3)=(length×width^2)×0.5 and analyzed using Excel version 11.2 (Microsoft Corporation). A linear mixed effect (LME) modeling approach was used to analyze the repeated measurement of tumor volumes from the same animals over time (Pinheiro, J. et al (2009); Tan, N. et al (2011) Clin. Cancer Res. 17(6):1394-1404). This approach addresses both repeated measurements and modest dropouts due to any non-treatment-related death of animals before study end. Cubic regression splines were used to fit a nonlinear profile to the time courses of log 2 tumor volume at each dose level. These nonlinear profiles were then related to dose within the mixed model. Tumor growth inhibition as a percentage of vehicle control (% TGI) was calculated as the percentage of the area under the fitted curve (AUC) for the respective dose group per day in relation to the vehicle, using the following formula: % TGI=100×(1−AUCdose/AUCveh). […]

[4] = test system: cyclin D1, cyclin E, phosphorylated Rb (Ser807/811) and cleaved PARP; test: Western blot pathway signaling in MCF7-ARO parental and resistant lines; assay type: cell-based; conditions: 24 hours of treatment (FIG. 2)
Description: Cells were treated for 24 hours with 20 nM GDC-0032 (Parental and Letrozole-R1) or 2.5 μM (Let-R1.GDC-0032-R) and/or 2.5 μM palbociclib.
Taselisib combines well with palbociclib in double-resistant MCF7-ARO cells (FIG. 1c). The effect on viability of taselisib and palbociclib as single agents is shown, respectively. The combination effect of the two drugs is indicated. Starting doses for taselisib were 80 nM for the parental and letrozole-R1 lines and 10 μM for […]. Palbociclib starting doses were 10 μM for all three lines (FIGS. 1a-c). Immunoblots from samples treated for 24 hours with 20 nM taselisib (Parental and Letrozole-R1) or 2.5 (Let-R1.taselisib-R). (D) Increased growth arrest is observed with combined PI3K and CDK4/6 inhibition. Immunoblots from samples treated for 24 hours with 20 nM taselisib (Parental and Letrozole-R1) or 2.5 μM (Let-R1. taselisib-R) and/or 2.5 μM palbociclib. Dotted lines for all viability data are indicative of CTG counts at the beginning of drug treatment. Error bars indicate standard deviation around the mean.

[5] = test system: pAkt, pPRAS40, pS6RP, pRb, cleaved PARP in MDA-MB-453 tumors; test: Protein levels (pharmacodynamic markers) in MDA-MB-453 tumors; assay type: in vivo, mice; conditions: for levels of pRB (ratio pRb to tRb): GDC-0032 5 mg/kg, palbociclib 50 mg/kg, 1 hr and 4 hr (FIG. 9d)
Description: FIGS. 9a-d show ratios of protein levels of mice treated with vehicle, GDC-0032 at 5 mg/kg, palbociclib at 50 mg/kg, and the combination of GDC-0032 at 5 mg/kg+palbociclib at 50 mg/kg, measured at 1 hr and 4 hr.

Question: Which “cell viability (CellTiter-Glo)” value [1] does the source give for `Cc1nc(-c2cn3c(n2)-c2ccc(-c4cnn(C(C)(C)C(N)=O)c4)cc2OCC3)n(C(C)C)n1` [GDC-0032, 2-(4-(2-(1-isopropyl-3-methyl-1H-1,2,4-triazol-5-yl)-5,6-dihydrobenzo[f]imidazo[1,2-d][1,4]oxazepin-9-yl)-1H-pyrazol-1-yl)-2-methylpropanamide] here?
Answer: potency remains

Question: What about the “cell viability (CellTiter-Glo)” value [2] of the same compound?
Answer: potency remains; also recorded: equally sensitive

Question: And the “cell viability (CellTiter-Glo)” value ([2]; listed as taselisib)?
Answer: similarly sensitive

Question: What about the CR [3] of the same compound?
Answer: 0

Question: What about the PR [3] of the same compound?
Answer: 0

Question: What about the “TTP 2X” value [3] of the same compound?
Answer: 9.5

Question: What about the “AUC/Day % TGI (lower, upper)” value [3] of the same compound?
Answer: 49 (16, 71) %

Question: What about the “Vol Day 21” value [3] of the same compound?
Answer: 349

Question: And the “PI3K pathway signaling (immunoblot)” value [4]?
Answer: decreases

Question: And the “cleaved PARP (immunoblot)” value [4]?
Answer: detected

Question: What about the “levels of pAkt (ratio pAkt to tAkt)” value ([5]; 5 mg/kg, 1 hr and 4 hr (FIG. 9a)) of the same compound?
Answer: effectively decreased

Question: What about the “levels of pPRAS40 (ratio pPRAS40 to tPRAS40)” value ([5]; 5 mg/kg, 1 hr and 4 hr (FIG. 9b)) of the same compound?
Answer: effectively decreased

Question: What about the “levels of pS6RP (ratio pS6RP to tS6RP)” value ([5]; 5 mg/kg, 1 hr and 4 hr (FIG. 9c)) of the same compound?
Answer: effectively decreased

Question: And the “cell death based on cleaved PARP” value ([5]; 5 mg/kg, 1 hr and 4 hr (FIG. 9e))?
Answer: induced cell death

Question: And the “levels of pRB (ratio pRb to tRb)” value [5]?
Answer: decreased

Question: For `CC(=O)c1c(C)c2cnc(Nc3ccc(N4CCNCC4)cn3)nc2n(C2CCCC2)c1=O` [palbociclib, 6-acetyl-8-cyclopentyl-5-methyl-2-(5-(piperazin-1-yl)pyridin-2-ylamino)pyrido[2,3-d]pyrimidin-7(8H)-one, reference compound], which “cell viability (CellTiter-Glo)” value [2] is on record?
Answer: more resistant

Question: And the CR [3]?
Answer: 0

Question: And the PR [3]?
Answer: 0

Question: What about the “TTP 2X” value [3] of the same compound?
Answer: 8.5

Question: What about the “AUC/Day % TGI (lower, upper)” value [3] of the same compound?
Answer: 39 (0, 63) %

Question: What about the “Vol Day 21” value [3] of the same compound?
Answer: 421

Question: And the “levels of pRB (ratio pRb to tRb)” value [5]?
Answer: decreased
